{
  "source": "patent US4073891A",
  "about": "“N^2 -Arylsulfonyl-L-argininamides and the pharmaceutically acceptable salts thereof” (Mitsubishi Chemical Industries Limited, priority 1974, dated 1978)",
  "key": {"mice": {"tested_on": "mice", "assay": "acute toxicity (LD50), intraperitoneal administration", "format": "in vivo", "settings": "mice (male, 20 g)", "description": "Representative LD50 values, for example, for N^2 -(5,6,7,8-tetrahydro-1-naphthylsulfonyl)-N-(2-methoxyethyl)glycine, N^2 -(7-methyl-2-naphthylsulfonyl)-N-butylglycine and N^2 -(6,7-dimethyl-1-naphthylsulfonyl)-N-(2-methoxyethyl)glycine are above 1,500 milligrams per kilogram, respectively."}, "thrombin": {"target": "T1, thrombin (Bos taurus, UniProt P00735)", "T1 construct": "purchased Mochida Pharmaceutical Co., Ltd", "assay": "fibrinogen coagulation time", "format": "biochemical", "settings": "bovine fibrinogen, thrombin 5 units/ml, borate saline buffer pH 7.4, 25° C; normal coagulation time 50-55 seconds", "description": "The measurement of the fibrinogen coagulation time was conducted as follows:\nImmediately after mixing, the reaction mixture was transferred from the ice bath to a bath maintained at 25° C. Coagulation times were taken as the period between the time of transference to the 25° C bath and the time of the first appearance of fibrin threads. […] The term \"concentration required to prolong the coagulation time by a factor of two\" is the concentration of an active ingredient required to prolong the normal coagulation time 50-55 seconds to 100-110 seconds."}},
  "data": [
    {"smiles": "CCCCNC(=O)[C@H](CCCNC(=N)N)NS(=O)(=O)c1cccc2c(N(C)C)cccc12", "note": "[N^2 -dansyl-N-butyl-L-argininamide, reference compound]", "values": [
      {"measurement": "acute toxicity LD50", "setting": "mice", "result": 75, "unit": "milligrams per kilogram"}
    ]},
    {"smiles": "CCCCN(C)C(=O)[C@H](CCCNC(=N)N)NS(=O)(=O)c1cccc2c(N(C)C)cccc12", "note": "[N^2 -dansyl-N-methyl-N-butyl-L-argininamide, reference compound]", "values": [
      {"measurement": "acute toxicity LD50", "setting": "mice", "result": 70, "unit": "milligrams per kilogram"}
    ]},
    {"smiles": "CCCCN(CC(=O)O)C(=O)[C@H](CCCNC(=N)N)NS(=O)(=O)c1cccc2c1CCCC2", "note": "[Sample 1, N^2-(5,6,7,8-tetrahydro-1-naphthylsulfonyl)-L-arginyl-N-butylglycine]", "values": [
      {"measurement": "Concentration required to prolong the coagulation time by a factor of two", "setting": "thrombin", "result": 20, "unit": "µM"}
    ]},
    {"smiles": "COCCN(CC(=O)O)C(=O)[C@H](CCCNC(=N)N)NS(=O)(=O)c1cccc2c1CCCC2", "note": "[Sample 3, N^2-(5,6,7,8-tetrahydro-1-naphthylsulfonyl)-L-arginyl-N-(2-methoxyethyl)glycine]", "values": [
      {"measurement": "Concentration required to prolong the coagulation time by a factor of two", "setting": "thrombin", "result": 10, "unit": "µM"},
      {"measurement": "acute toxicity LD50", "setting": "mice", "result": "above 1,500 milligrams per kilogram"}
    ]},
    {"smiles": "N=C(N)NCCC[C@H](NS(=O)(=O)c1ccc2c(c1)CCCC2)C(=O)N(CC(=O)O)Cc1ccccc1", "note": "[Sample 4, N^2-(5,6,7,8-tetrahydro-2-naphthylsulfonyl)-L-arginyl-N-benzylglycine]", "values": [
      {"measurement": "Concentration required to prolong the coagulation time by a factor of two", "setting": "thrombin", "result": 30, "unit": "µM"}
    ]},
    {"smiles": "CCCCN(CC(=O)O)C(=O)[C@H](CCCNC(=N)N)NS(=O)(=O)c1ccc2ccc(C)cc2c1", "note": "[Sample 14, N^2-(7-methyl-2-naphthylsulfonyl)-L-arginyl-N-butylglycine]", "values": [
      {"measurement": "Concentration required to prolong the coagulation time by a factor of two", "setting": "thrombin", "result": 0.3, "unit": "µM"},
      {"measurement": "acute toxicity LD50", "setting": "mice", "result": "above 1,500 milligrams per kilogram"}
    ]},
    {"smiles": "COCCN(CC(=O)O)C(=O)[C@H](CCCNC(=N)N)NS(=O)(=O)c1ccc2ccc(C)cc2c1", "note": "[Sample 15, N^2-(7-methyl-2-naphthylsulfonyl)-L-arginyl-N-(2-methoxyethyl)glycine]", "values": [
      {"measurement": "Concentration required to prolong the coagulation time by a factor of two", "setting": "thrombin", "result": 0.2, "unit": "µM"}
    ]},
    {"smiles": "Cc1ccc2ccc(S(=O)(=O)N[C@@H](CCCNC(=N)N)C(=O)N(CC(=O)O)CC3CCCCC3)cc2c1", "note": "[Sample 17, N^2-(7-methyl-2-naphthylsulfonyl)-L-arginyl-N-cyclohexylmethylglycine]", "values": [
      {"measurement": "Concentration required to prolong the coagulation time by a factor of two", "setting": "thrombin", "result": 14, "unit": "µM"}
    ]},
    {"smiles": "COCCN(CC(=O)O)C(=O)[C@H](CCCNC(=N)N)NS(=O)(=O)c1cccc2ccc(C)cc12", "note": "[Sample 22, N^2-(7-methyl-1-naphthylsulfonyl)-L-arginyl-N-(2-methoxyethyl)glycine]", "values": [
      {"measurement": "Concentration required to prolong the coagulation time by a factor of two", "setting": "thrombin", "result": 20, "unit": "µM"}
    ]},
    {"smiles": "COCCN(CC(=O)O)C(=O)[C@H](CCCNC(=N)N)NS(=O)(=O)c1cccc2cc(C)c(C)cc12", "note": "[Sample 23, N^2-(6,7-dimethyl-1-naphthylsulfonyl)-L-arginyl-N-(2-methoxyethyl)glycine]", "values": [
      {"measurement": "Concentration required to prolong the coagulation time by a factor of two", "setting": "thrombin", "result": 10, "unit": "µM"},
      {"measurement": "acute toxicity LD50", "setting": "mice", "result": "above 1,500 milligrams per kilogram"}
    ]},
    {"smiles": "CCCCN(CC(=O)O)C(=O)[C@H](CCCNC(=N)N)NS(=O)(=O)c1cccc2c(N(C)C)cccc12", "note": "[Sample 24, N^2-(5-dimethylamino-1-naphthylsulfonyl)-L-arginyl-N-butylglycine]", "values": [
      {"measurement": "Concentration required to prolong the coagulation time by a factor of two", "setting": "thrombin", "result": 4, "unit": "µM"}
    ]}
  ]
}
